Results as given in patent publication US20250319021A1, “COMPOSITION OF HYDROGEL LOADED WITH HORMONE” (VITALTE LIFESCIENCES INC., priority 2024, published 2025).

Experiments:
[1] = T release rate comparison in saline incubation media; assay type: physicochemical; conditions: 2, 4 and 6 hours
Protocol: In order to compare the release rate results of hydrogel encapsulated T to pelleted T, larger gels had to be prepared as the T pellets which the hydrogels are intended to replace are 25 mg, where the E2 pellets are merely 6 mg. Thus, approximately 83 mg of hydrogel at 30% T loading and 1% HA were prepared. In order to achieve even or consistent crosslinking in these much larger hydrogel samples, Likarda's patented micromolds (shown in FIG. 21) were employed. After formation, the encapsulated T was removed from the molds and placed in tubes to be rotated for an hour. The encapsulated T hydrogels were then removed from the tubes and stored in Dulbecco's PBS buffer. The large hydrogel blocks encapsulating T were then tested and compared to 25 mg T pellets and micronized T powder.
The T powder was produced as a 2.5 mg/mL slurry in buffer to reach the near saturation point of T in the buffer. Samples of the T powder slurry were removed from only the top layer of the slurry fluid to avoid aspirating T particles in the slurry that may have precipitated at to the bottom. T pellets were collected directly from the vials in which they were stored. The 83 mg hydrogels containing 30% T were collected from Dulbecco's PBS buffer, rinsed, and dried. Each of the collected samples was then placed in a separate container of incubation media (saline in this instance) for the release studies. […]

[2] = cited from earlier work

SMILES	T release level / approximate saturation level of T in saline [1]	solubility in water compared to E2 [2]
C[C@]12CC[C@H]3[C@@H](CCC4=CC(=O)CC[C@@]43C)[C@@H]1CC[C@@H]2O [T powder, Testosterone]	about 1.5 mg/L	
C[C@]12CC[C@H]3[C@@H](CCC4=CC(=O)CC[C@@]43C)[C@@H]1CC[C@@H]2O [Testosterone (T), Testosterone]		much higher solubility factor in water compared to E2
